In one data set the test system is VCAM-1. The data set is described as follows: LPS-induced VCAM-1 expression in HUVEC (Western blot). Type of data set: cell-based, human. As to conditions: peptide 50 ug/ml, LPS 1 ug/ml, 6 h exposure. The text has this:
HUVECs were challenged with the peptide alone, peptide +LPS and LPS. LPS induces expression of VCAM-1 (lane 3).
The effect of the peptide on the inflammatory response of bacterial lipopolysaccaride (LPS), a potent inducer of cytokines and cell adhesion molecules was also examined.
A general note: Immunoblotting shows a protein as a band on a membrane.

Another data set relates to WHHL rabbits. The data set is described as follows: Single bolus i.v. administration in WHHL rabbits. Type of data set: in vivo, rabbit. On the procedure: (§1) 100 μg of the ^125I-labelled peptide was mixed with 1 ml of plasma from 6 month old WHHL rabbit. After incubation for 1 h at room temperature, the plasma was subjected to CLiP analysis (66). Radioactivity in different fractions was determined and plotted on the CLiP profile. […] This improvement was associated with a reduction in 2 markers of oxidative stress.
Results observed in HepG2 cells indicate that peptide associates with apo B-containing plasma lipoproteins to incorporate positive charges on the lipoprotein surface. This enables the apo B-containing lipoproteins to interact with heparan sulphate proteoglycans (HSPGs). The effect of these peptides on the mode of reduction of plasma cholesterol levels in mouse models and the two rabbit models can be determined. In NZW rabbits fed a 1% cholesterol-diet, a reduction of plasma cholesterol is observed which lasts for 14 days after the peptide administration; whereas in the WHHL rabbits, the reduction is initially rapid and returns to original levels within 3 days. Since the WHHL rabbit model is LDL-receptor defective, the differential effects of the peptide in two models can be due to differences in the receptor-mediated clearance pathways of atherogenic lipoproteins. HepG2 cells, primary hepatocytes from apo E null and LDL-R null mice, and primary rabbit hepatocytes can be used to determine the molecular factors in the receptor-mediated clearance pathways of atherogenic lipoproteins.

The test system of data set [1] is plasma LDL from WHHL rabbits. Briefly: Association of 125I-labelled peptide with WHHL rabbit plasma lipoproteins (CLiP). Type of data set: binding. On the procedure: as §1
Data set [2] concerns MEF 1 cells with induced LDL receptors. As to conditions: cited from earlier work.
The test system of the next data set is apo E null mice. The data set is described as follows: Atherosclerosis inhibition in apo E null mice, retroorbital administration, en face lesion analysis. Type of data set: in vivo. On the procedure:
Extent of lesion is analyzed by en face preparation and staininf with Oil Red O.
Atherosclerosis inhibition studies in apo E null mice that develop atherosclerosis spontaneously were also performed. […] Lesion analysis was performed using the en face preparations. Sixteen week old mice would have well established lesions. […] Detailed studies on the mechanism of the inhibition of atherosclerosis are described below.

The conditions of data set [3]: experiments where atherogenic lipoprotein reduction was observed; CLiP; cited from earlier work.
The subject of data set [4] is THP-1 monocyte derived macrophages. Briefly: Secretion of de novo synthesized apo E by THP-1 monocyte derived macrophages. Type of data set: cell-based. As to conditions: 25 ug/10^6 cells, 35S-methionine, densitometry.
Description: Bands were developed by autoradiography and quantitated by densitiometry.
THP-1 monocyte derived macrophages were metabolically labeled with ^35S-methionine in RPMI medium containing FBS. Macrophages (10^6 cells) were treated with the dual-domain peptide (25 tjg/10^6 cells) for 5. Conditioned medium was collected and cells were washed with cold PBS. Preparative cocktail containing MEM, plus lupeptin (50 tjg/ml), pepstatin A (50 tjg/ml), and aprotinin (100 kallikrein inactivating units/ml) were added to the medium to preserve oxidative and proteolytic damage. The medium from control cells and peptide-treated medium were concentrated to equal volume and loaded quantitatively on SDS-polyacrylamide gels (4 to 20% PAGE for 2.5 h at 4° C. at 125 volts). The gel was exposed to x-ray film for overnight.
Where [5] appears, read: single bolus 15 mg/kg intravenous.

This is an account of results in patent US8557767B2, “Synthetic apolipoprotein E mimicking polypeptides and methods of use” (UAB Research Foundation, priority 2007, dated 2013).

On to “Ac-LRKLRKRLLRDWLKAFYDKVAEKLKEAF-NH2 [Ac-hE-18A-NH2]”, for which the “inhibition of LPS-induced VCAM-1 expression” value in the data set on VCAM-1 is recorded as “more than 80%”. Also, in the data set with WHHL rabbits (WHHL rabbits), the “time for plasma cholesterol to return to original levels” value is reported as at most 3 days. Further, in the data set on WHHL rabbits (setting [5]), the arterial endothelial function result was “significantly improved”, the “formation of superoxide anion in arteries” value is listed as “significantly reduced”, the “increase in HDL paraoxonase activity” value is 5 fold and the “plasma lipid hydroperoxide content” value is given as “reduced significantly”. Besides, the “plasma cholesterol levels at 18 h” value with WHHL rabbits (single bolus 15 mg/kg intravenous, reduced from 562±29 mg/dl) was determined as 287 ± 22 mg/dL. Further, in data set [1] (100 ug 125I-labelled peptide in 1 ml plasma, 1 h room temperature), the “association with WHHL plasma lipoproteins” value is listed as “associates with LDL”. Further, the “LOOH content of peptide-treated WHHL plasma LDL” value in data set [1] (compared to plasma from untreated rabbits) is reported as “reduced amounts of LOOH”. In addition, the LDL internalization enhanced entry in data set [2] was “five”. Also, the “decreased lesion compared to control group” value in the data set on apo E null mice (50 ug/mouse retroorbital, 3 times weekly, four weeks, sixteen week old female apo E null mice, en face, p<0.001) is recorded as 40%. In addition, the “loss of animals / visible injury” value in the data set on apo E null mice (12 retroorbital administrations, 50 ug/mouse) is “no loss of animals and no visible injury to animals was observed”. The “effect on HDL levels” value in data set [3] is given as “did not reduce HDL levels”. Further, the “intensity of 36 kDa apo E band relative to medium of control cells” value in data set [4] is on record as 4 times.
